According to US20160271263A1 (Novo Nordisk A/S, priority 2010, published 2016):
Numbered stars: 1 amine (or outer) side, 2 acyl side, 3 side chain; on linkers, the order of the positions; unused ones are H or OH. Side chains are listed from the residue outwards. Peptide text beside a SMILES is read from it. * marks the point of attachment. C18 diacid = O=C(O)CCCCCCCCCCCCCCCCC(=O)*; γGlu = O=C(O)[C@H](CCC(=O)[*:2])N[*:1]; AEEA = NCCOCCOCC(=O)O

Target: glucagon receptor (Homo sapiens, UniProt P47871)
Assay: cell-based

Chain of glucagon receptor (P47871 26-477): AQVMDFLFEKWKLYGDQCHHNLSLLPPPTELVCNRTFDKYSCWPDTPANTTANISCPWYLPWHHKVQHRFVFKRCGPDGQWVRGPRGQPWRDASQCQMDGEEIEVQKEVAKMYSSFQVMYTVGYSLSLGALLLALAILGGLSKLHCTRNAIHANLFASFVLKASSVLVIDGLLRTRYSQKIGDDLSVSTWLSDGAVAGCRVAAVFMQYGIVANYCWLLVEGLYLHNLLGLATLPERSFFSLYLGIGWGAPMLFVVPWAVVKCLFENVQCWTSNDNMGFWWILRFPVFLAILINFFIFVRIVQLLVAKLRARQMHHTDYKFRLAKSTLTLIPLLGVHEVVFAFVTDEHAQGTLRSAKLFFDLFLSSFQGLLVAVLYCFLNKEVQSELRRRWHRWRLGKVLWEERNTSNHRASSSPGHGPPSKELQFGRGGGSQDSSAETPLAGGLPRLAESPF

Row | SMILES | EC50
1 | CC(C)C[C@H](NC(=O)[C@H](CC(C)C)NC(=O)[C@H](Cc1c[nH]c2ccccc12)NC(=O)[C@H](CCCCNC(=O)COCCOCCNC(=O)COCCOCCNC(=O)CC[C@H](NC(=O)CCCCCCCCCCCCCCCCC(=O)O)C(=O)O)NC(=O)[C@@H](NC(=O)[C@H](Cc1ccccc1)NC(=O)[C@H](CC(=O)O)NC(=O)[C@H](CCC(N)=O)NC(=O)[C@H](C)NC(=O)[C@H](CCCNC(=N)N)NC(=O)[C@H](CCCNC(=N)N)NC(=O)[C@H](CCC(=O)O)NC(=O)[C@H](CC(=O)O)NC(=O)[C@H](CC(C)C)NC(=O)[C@H](Cc1ccc(O)cc1)NC(=O)[C@H](CCCCN)NC(=O)[C@H](CO)NC(=O)[C@H](Cc1ccc(O)cc1)NC(=O)[C@H](CC(=O)O)NC(=O)[C@H](CO)NC(=O)[C@@H](NC(=O)[C@H](Cc1ccccc1)NC(=O)[C@@H](NC(=O)CNC(=O)[C@H](CCC(N)=O)NC(=O)[C@H](CO)NC(=O)[C@@H](N)Cc1c[nH]cn1)[C@@H](C)O)[C@@H](C)O)C(C)C)C(=O)N[C@@H](C)C(=O)N[C@H](C(N)=O)[C@@H](C)O [Example 32, N^ε24-([2-[2-[2-[[2-[2-[2-[[(4S)-5-hydroxy-4-[(18-hydroxy-18-oxooctadecanoyl)amino]-5-oxopentanoyl]amino]ethoxy]ethoxy]acetyl]amino]ethoxy]ethoxy]acetyl])[Glu^16, Lys^24, Leu^27, Ala^28] Glucagon peptide amide] (H-HSQGTFTSDYSKYLDERRAQDFVK([AEEA-AEEA-γGlu-C18 diacid])WLLAT-NH2; N-terminus assumed) | 0.0235 nM
2 | CC(C)C[C@H](NC(=O)[C@H](Cc1ccc(O)cc1)NC(=O)[C@H](CCCCN)NC(=O)[C@H](CO)NC(=O)[C@H](Cc1ccc(O)cc1)NC(=O)[C@H](CC(=O)O)NC(=O)[C@H](CO)NC(=O)[C@@H](NC(=O)[C@H](Cc1ccccc1)NC(=O)[C@@H](NC(=O)CNC(=O)[C@H](CCC(N)=O)NC(=O)[C@H](CO)NC(=O)[C@@H](N)Cc1c[nH]cn1)[C@@H](C)O)[C@@H](C)O)C(=O)N[C@@H](CC(=O)O)C(=O)N[C@@H](CO)C(=O)N[C@@H](CCC(N)=O)C(=O)N[C@@H](CCCNC(=N)N)C(=O)N[C@@H](C)C(=O)N[C@@H](CCC(N)=O)C(=O)N[C@@H](CC(=O)O)C(=O)N[C@@H](Cc1ccccc1)C(=O)N[C@H](C(=O)N[C@@H](CCCCNC(=O)COCCOCCNC(=O)COCCOCCNC(=O)CC[C@H](NC(=O)CCCCCCCCCCCCCCCCC(=O)O)C(=O)O)C(=O)N[C@@H](Cc1c[nH]c2ccccc12)C(=O)N[C@@H](CC(C)C)C(=O)N[C@H](C(=O)N[C@@H](CCCCN)C(=O)N[C@H](C(=O)NCC(=O)N1CCC[C@H]1C(N)=O)[C@@H](C)O)C(C)C)C(C)C [Example 33, (N^ε24-([2-[2-[2-[[2-[2-[2-[[(4S)-5-hydroxy-4-[(18-hydroxy-18-oxooctadecanoyl)amino]-5-oxopentanoyl]amino]ethoxy]ethoxy]acetyl]amino]ethoxy]ethoxy]acetyl])[Gln^17, Lys^24, Val^27, Lys^28] Glucagonyl)-Gly-Pro amide] (H-HSQGTFTSDYSKYLDSQRAQDFVK([AEEA-AEEA-γGlu-C18 diacid])WLVKTGP-NH2; N-terminus assumed) | 0.942 nM
